Measured values published in PubChem BioAssay AID248 (DTP/NCI, 2004).
Where “and” joins values, the source holds several entries; their conditions need not be identical. Equal entries are not always repeated. Toxic doses and inconclusive results are not listed. Cut-off read from the data, not from the text of the source: active = T/C of 150% or more; inactive = T/C below 125%.

System: L1210 leukemia ip in BDF1 mice, survival T/C
Experiment: NCI In Vivo Anticancer Drug Screen. Data for tumor model L1210 Leukemia (intraperitoneal) in B6D2F1 (BDF1) mice
Conditions: endpoint: mean survival time, higher = longer survival
Procedure, shortened: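 Value reflects the ratio of survival in compound-treated mice to survival in vehicle-treated controls, with both groups carrying the same transplanted tumor.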

[1] = dose: 100.0 mg/kg/injection, schedule: Q01DX001 (ip), vehicle: saline
[2] = dose: 200.0 mg/kg/injection, schedule: Q01DX001 (ip), vehicle: saline
[3] = dose: 100.0 mg/kg/injection, schedule: Q01DX009 (ip), vehicle: Klucel (hydroxypropylcellulose) (HPC)
[4] = dose: 100.0 mg/kg/injection, schedule: Q04DX003 (ip), vehicle: Klucel (hydroxypropylcellulose) (HPC)
[5] = dose: 200.0 mg/kg/injection, schedule: Q01DX009 (ip), vehicle: Klucel (hydroxypropylcellulose) (HPC)
[6] = dose: 200.0 mg/kg/injection, schedule: Q04DX003 (ip), vehicle: Klucel (hydroxypropylcellulose) (HPC)
[7] = dose: 400.0 mg/kg/injection, schedule: Q01DX009 (ip), vehicle: Klucel (hydroxypropylcellulose) (HPC)
[8] = dose: 400.0 mg/kg/injection, schedule: Q04DX003 (ip), vehicle: Klucel (hydroxypropylcellulose) (HPC)
[9] = dose: 100.0 mg/kg/injection, schedule: Q01DX001 (ip), vehicle: carboxymethylcellulose (CMC)
[10] = dose: 200.0 mg/kg/injection, schedule: Q01DX001 (ip), vehicle: carboxymethylcellulose (CMC)
[11] = dose: 400.0 mg/kg/injection, schedule: Q01DX001 (ip), vehicle: carboxymethylcellulose (CMC)
[12] = dose: 100.0 mg/kg/injection, schedule: Q01DX001 (ip), vehicle: saline with Tween-80
[13] = dose: 200.0 mg/kg/injection, schedule: Q01DX001 (ip), vehicle: saline with Tween-80
[14] = dose: 400.0 mg/kg/injection, schedule: Q01DX001 (ip), vehicle: saline with Tween-80
[15] = dose: 100.0 mg/kg/injection, schedule: Q04DX003 (ip), vehicle: saline with Tween-80
[16] = dose: 200.0 mg/kg/injection, schedule: Q04DX003 (ip), vehicle: saline with Tween-80
[17] = dose: 400.0 mg/kg/injection, schedule: Q04DX003 (ip), vehicle: saline with Tween-80
[18] = dose: 100.0 mg/kg/injection, schedule: Q01DX009 (ip), vehicle: saline
[19] = dose: 100.0 mg/kg/injection, schedule: Q04DX003 (ip), vehicle: saline
[20] = dose: 100.0 mg/kg/injection, schedule: Q04DX002 (ip), vehicle: Klucel (hydroxypropylcellulose) (HPC)
[21] = dose: 200.0 mg/kg/injection, schedule: Q04DX002 (ip), vehicle: Klucel (hydroxypropylcellulose) (HPC)
[22] = dose: 50.0 mg/kg/injection, schedule: Q01DX009 (ip), vehicle: Klucel (hydroxypropylcellulose) (HPC)
[23] = dose: 50.0 mg/kg/injection, schedule: Q01DX009 (ip), vehicle: saline with Tween-80
[24] = dose: 100.0 mg/kg/injection, schedule: Q01DX009 (ip), vehicle: saline with Tween-80
[25] = dose: 200.0 mg/kg/injection, schedule: Q01DX009 (ip), vehicle: saline with Tween-80
[26] = dose: 400.0 mg/kg/injection, schedule: Q04DX002 (ip), vehicle: Klucel (hydroxypropylcellulose) (HPC)

Measured: T/C

CCOC(=O)NC(=S)[S][Sb]([S]C(=S)NC(=O)OCC)[S]C(=S)Nc1ccc(S(=O)(=O)Nc2ccc(N=Nc3ccccc3)cc2)cc1
inactive: dose: 100.0 mg/kg/injection, schedule: Q01DX001 (ip), vehicle: steriod suspending solution 103 % of control | dose: 400.0 mg/kg/injection, schedule: Q01DX001 (ip), vehicle: steriod suspending solution 106 % of control

Cc1cc(=O)n2c3c(ccc([N+](=O)[O-])c13)OC2
inactive: [1] 104 % of control | [2] 99 % of control | dose: 400.0 mg/kg/injection, schedule: Q01DX001 (ip), vehicle: saline 95 % of control

CN(C)c1ccc(C(=C2C=CC(=[N+](C)C)C=C2)c2ccc(N(C)C)cc2)cc1
inactive: [1] 97 % of control | [2] 105 % of control

O=C(COc1ccc(Cl)cc1Cl)NO
inactive: [3] 104 % of control | [4] 102 % of control | [5] 109 % of control | [6] 104 % of control | [7] 101 % of control | [8] 106 % of control

CC(=O)N(c1ccccc1)c1nc(CCl)cs1
inactive: [9] 100 % of control | dose: 100.0 mg/kg/injection, schedule: Q01DX009 (ip), vehicle: carboxymethylcellulose (CMC) 88 % of control | dose: 100.0 mg/kg/injection, schedule: Q04DX002 (ip), vehicle: carboxymethylcellulose (CMC) 97 % of control and 100 % of control | dose: 100.0 mg/kg/injection, schedule: Q04DX003 (ip), vehicle: carboxymethylcellulose (CMC) 100 % of control | [10] 108 % of control | dose: 200.0 mg/kg/injection, schedule: Q01DX009 (ip), vehicle: carboxymethylcellulose (CMC) 98 % of control and 89 % of control | dose: 200.0 mg/kg/injection, schedule: Q04DX002 (ip), vehicle: carboxymethylcellulose (CMC) 95 % of control and 103 % of control | dose: 200.0 mg/kg/injection, schedule: Q04DX003 (ip), vehicle: carboxymethylcellulose (CMC) 102 % of control | [11] 93 % of control | dose: 400.0 mg/kg/injection, schedule: Q01DX009 (ip), vehicle: carboxymethylcellulose (CMC) 98 % of control and 103 % of control | dose: 400.0 mg/kg/injection, schedule: Q04DX002 (ip), vehicle: carboxymethylcellulose (CMC) 100 % of control and 102 % of control | dose: 400.0 mg/kg/injection, schedule: Q04DX003 (ip), vehicle: carboxymethylcellulose (CMC) 104 % of control

CCCCCC[Si]CCCCCC
inactive: [12] 94 % of control | [13] 100 % of control | [14] 94 % of control

C=Cc1c(C)c(O)cc2c1CC[C@@H]1C(C)(C)[C@H](O)[C@H](O)C[C@@]21C
inactive: [15] 103 % of control | [16] 100 % of control | [17] 98 % of control

Cc1cc(Oc2ccc(Cl)cc2NC(=O)Nc2ccc(Cl)c(Cl)c2)c(S(=O)(=O)O)cc1Cl
inactive: dose: 12.5 mg/kg/injection, schedule: Q04DX003 (ip), vehicle: saline 103 % of control | dose: 25.0 mg/kg/injection, schedule: Q01DX009 (ip), vehicle: saline 103 % of control | dose: 25.0 mg/kg/injection, schedule: Q04DX003 (ip), vehicle: saline 105 % of control | dose: 50.0 mg/kg/injection, schedule: Q01DX009 (ip), vehicle: saline 95 % of control | dose: 50.0 mg/kg/injection, schedule: Q04DX003 (ip), vehicle: saline 103 % of control | [18] 101 % of control | [19] 97 % of control

CCCCCCCC(CC(=O)O)OC(=O)CC(CCCCCCC)OC1OC(C)C(O)C(O)C1OC1OC(C)C(O)C(O)C1O (configuration not stated)
inactive: [20] 102 % of control | [21] 102 % of control

O=C(Nc1ccc(O)cc1)Nc1cccc(C(F)(F)F)c1
inactive: dose: 100.0 mg/kg/injection, schedule: Q01DX009 (ip), vehicle: gum acacia 103 % of control | dose: 200.0 mg/kg/injection, schedule: Q01DX009 (ip), vehicle: gum acacia 106 % of control | dose: 400.0 mg/kg/injection, schedule: Q01DX009 (ip), vehicle: gum acacia 100 % of control

CC1=C/C(=N\N=C2/C=C(C)CC(C)(C)C2)CC(C)(C)C1
inactive: [3] 95 % of control | [5] 105 % of control | [7] 100 % of control

O=C1NNC(=O)NN1
inactive: [22] 97 % of control | [3] 103 % of control | [4] 100 % of control and 101 % of control | [5] 105 % of control | [6] 95 % of control | [8] 94 % of control

CCOC(=O)c1cnn(C(N)=S)c1N
inactive: [23] 95 % of control | [24] 98 % of control | [15] 102 % of control | [16] 105 % of control | [17] 96 % of control

Nc1ncnc(N)c1NC(=O)c1ccc(C(=O)c2cccc([N+](=O)[O-])c2)cc1
inactive: dose: 100.0 mg/kg/injection, schedule: Q01DX001 (ip), vehicle: gum acacia 97 % of control | dose: 200.0 mg/kg/injection, schedule: Q01DX001 (ip), vehicle: gum acacia 100 % of control | dose: 400.0 mg/kg/injection, schedule: Q01DX001 (ip), vehicle: gum acacia 93 % of control

CC(=O)C1=CN(c2ccccc2)COC1C (configuration not stated)
inactive: [22] 107 % of control | [3] 91 % of control | [5] 100 % of control

Nc1ncnc2nc(-c3ccc(SCc4ccccc4)cc3)[nH]c12
inactive: [23] 93 % of control and 89 % of control | [12] 91 % of control | [24] 99 % of control and 103 % of control and 104 % of control | dose: 100.0 mg/kg/injection, schedule: Q04DX002 (ip), vehicle: saline with Tween-80 103 % of control | [13] 87 % of control | [25] 96 % of control and 103 % of control and 86 % of control | dose: 200.0 mg/kg/injection, schedule: Q04DX002 (ip), vehicle: saline with Tween-80 97 % of control and 100 % of control | [14] 91 % of control | dose: 400.0 mg/kg/injection, schedule: Q04DX002 (ip), vehicle: saline with Tween-80 94 % of control and 100 % of control

CC(=O)CC(=O)CCc1ccccc1.CC(=O)CC(=O)CCc1ccccc1.[Cu]
inactive: dose: 75.0 mg/kg/injection, schedule: Q01DX001 (ip), vehicle: carboxymethylcellulose (CMC) 91 % of control

CCOC(=O)Nc1nn[nH]n1
inactive: dose: 50.0 mg/kg/injection, schedule: Q01DX001 (ip), vehicle: carboxymethylcellulose (CMC) 92 % of control | [9] 97 % of control | [10] 101 % of control | [11] 90 % of control

CCOP(=O)(OCC)C1=C(P(=O)(OCC)OCC)C(F)(F)C1(F)F
inactive: dose: 75.0 mg/kg/injection, schedule: Q01DX001 (ip), vehicle: other 102 % of control

COc1cc(N)c2ncsc2c1
inactive: [18] 97 % of control | [20] 94 % of control | dose: 200.0 mg/kg/injection, schedule: Q01DX009 (ip), vehicle: saline 102 % of control | [21] 88 % of control | [26] 91 % of control

C=CS(=O)(=O)CCCC
inactive: [24] 97 % of control | [25] 101 % of control

CSc1ccc(NC(=O)Nc2cc(C)ccc2Cl)cc1
inactive: [3] 86 % of control | [5] 93 % of control | [7] 88 % of control

Cc1ccc(NC(=O)Oc2ccccc2C(=O)OCc2ccccc2)cc1
inactive: [3] 101 % of control | [20] 88 % of control | [5] 106 % of control | [21] 88 % of control | [7] 101 % of control | [26] 107 % of control

CCN1C(c2ccccc2)C1c1ccccc1 (configuration not stated)
inactive: [4] 101 % of control | [6] 102 % of control | [8] 101 % of control

Nc1cc([N+](=O)[O-])ccc1Cl
inactive: [3] 99 % of control | [4] 102 % of control | [5] 101 % of control | [6] 102 % of control | [8] 103 % of control

NNC(=O)Cc1ccccc1
inactive: [19] 94 % of control | dose: 200.0 mg/kg/injection, schedule: Q04DX003 (ip), vehicle: saline 89 % of control

CCOC(=O)c1cnc2c(cnn2CC)c1NCC(C)C
inactive: [22] 100 % of control | [3] 100 % of control | [5] 103 % of control
